This is an account of results in patent publication US11235020B2, “Methods and compositions for inhibiting glyoxalase 1 (GLO1)” (priority 2013, dated 2022).

Read-outs that look alike come from different tables or passages of the source.

For data set [1], the system named is anxiety-like behavior in C57BL6/J mice. Kind of data set: OFT after bilateral microinjection into the basolateral amygdala (BLA). As to conditions: MG 12 uM or 24 uM, 0.5 ul bilateral into BLA, over 30 m.
Data set [2] has as its system picrotoxin-induced seizures. Put plainly: Picrotoxin-induced seizures, behavioral scoring. Type of data set: in vivo, mouse. As to conditions: MG 50 and 200 mg/kg pre-treatment, picrotoxin 5 mg/kg. As for the experimental part:
(§1) Drug administration: All experiments with MG utilized crude MG obtained from Sigma-Aldrich. For pre-treatment, MG (50 or 200 mg/kg) or vehicle (0.9% saline) was administered by i.p. injection 10 minutes before the seizure-inducing agent. For treatment after seizure onset, MG (200 mg/kg) or vehicle (0.9% saline) was administered by i.p. injection ten minutes after seizure onset. For GLO1 inhibition, BrBzGCp2 (50 mg/kg) or vehicle (8% DMSO and 18% Tween-80) was administered by i.p. injection two hours before seizure induction.
(§2) Seizure induction: For picrotoxin-induced seizures, 5 mg/kg of picrotoxin in 0.9% saline was administered by i.p. injection. Seizures were scored for one hour after picrotoxin administration. For pilocarpine-induced seizures, mice were pre-treated with atropine (5 mg/kg in 0.9% saline) by i.p. injection in order to reduce the peripheral effects of pilocarpine. Thirty minutes after atropine administration, pilocarpine was administered by i.p. injection. B6 mice were treated with 250 mg/kg pilocarpine in 0.9% saline, and FVB mice (WT and Tg) were treated with 300 mg/kg pilocarpine in 0.9% saline. Seizures were scored for 90 minutes after pilocarpine administration.
Seizure scoring: Picrotoxin-induced seizures were scored as the presence of generalized convulsions as well as the latency to and duration of generalized convulsions.

Data set [3] relates to picrotoxin-induced seizures. Put plainly: Picrotoxin-induced seizures assessed by EEG. The format is in vivo, mouse. The settings on record: MG 200 mg/kg pre-treatment, picrotoxin 7 mg/kg. As for the experimental part: FIGS. 37A-37D: Exogenous MG attenuates picrotoxin-induced seizures as assessed by EEG. B6 mice were pre-treated with vehicle or MG (200 mg/kg) prior to seizure induction with picrotoxin (7 mg/kg). […] P=0.036 by Mann-Whitney U test. […] P=0.028 by Mann-Whitney U test. […] P=0.036 by Mann-Whitney U test. […] P=0.014 by Mann-Whitney U test. […] P=0.028 by Mann-Whitney U test. FIG. 37D, Representative EEG recordings of a mouse during baseline period (prior to any injections), after acute saline and picrotoxin (7 mg/kg) injections, or after acute MG (200 mg/kg) and picrotoxin (7 mg/kg) injections. […] Seizures are associated with high muscle activity, as indicated by the electromyography (EMG) trace. […] EEG traces correspond to four differential recordings from each of four subdural electrodes (EEG1 and EEG2 (right cortical hemisphere), EEG3 and EEG4 (left cortical hemisphere)). EMG activity was recorded using two fine wires placed into the neck muscle. Calibration mark: 500 μV/mm and 1 second. Data are mean±SEM. n=4 vehicle, 5 MG (200 mg/kg). *P<0.05 versus vehicle-treated group as determined by Mann-Whitney U tests.
In order to validate these behavioral data, the inventors assessed seizure activity by EEG analysis of mice treated with 7 mg/kg picrotoxin. […] Thus, MG attenuates seizures induced by GABAA receptor blockade at both the behavioral and EEG level.

For data set [4], the system named is pilocarpine-induced seizures. Kind of data set: Pilocarpine-induced seizures. The format is in vivo, mouse. As to the method: as §1, §2
Pilocarpine-induced seizures were scored as previously reported (Winawer 2011):
Stage 1: Immobility/Lying Low
Stage 2: Partial (limbic) seizures. Non-continuous twitching/tremor/shaking of tail/head/body/limbs, forelimb and/or tail extension, rigid posture, repetitive movements, head bobbing
Stage 3: Partial status epilepticus. Continuous tremor/clonic seizures of body and tail while retaining posture
Stage 4: Generalized seizures. Rearing/hyperexcitability/running/falling, tonic extension/clonic seizures with loss of posture
Stage 5: Generalized status epilepticus (continuous stage 4 seizures) resulting in death

The test system of data set [5] is glutamate receptors. Kind of data set: Glutamatergic currents in CGN. Type of data set: cell-based, rat. The settings on record: 10 μM MG. An excerpt:
Ligand-gated currents: Ligand-gated currents were studied in voltage-clamp mode by application of reagents to cells held at −50 mV. GABAergic and glycinergic currents were activated by application of GABA and glycine and antagonized by application of SR and strychnine, respectively (Kaneda 1995). Glutamatergic currents were activated by 1-glutamate and antagonized by CNQX and AP-5 (Wyllie 1994).

In data set [6] the test system is mice. Put plainly: Hypothermia (rectal temperature). The format is in vivo, mouse. The settings on record: 300 mg/kg i.p., B6 mice. As for the experimental part:
Hypothermia: Thirty minutes post-injection, rectal temperature was measured with a digital thermometer.

Data set [7] is described as follows: HPLC measurement of MG concentration in whole brain after i.p. MG. Type of data set: in vivo, mouse. The settings on record: for concentration at 10 min: intraperitoneal, read-out: Estimated MG concentration; for concentration at 10 min / MG concentration (nmol/g tissue): brain; for MG concentration (nmol/g tissue): 10 min post-injection. As for the experimental part: MG concentration was measured by HPLC as previously described with modifications (Dhar 2009). Tissue was homogenized in 50 mM sodium phosphate buffer (pH 6.6) and 0.8N perchloric acid. It was then incubated on ice for 10 minutes and centrifuged. The supernatant was filtered, and MG was derivatized with 10 mM o-phenylenediamine to form 2-methylquinoxaline (2-MQ). 5-methylquinoxaline (5-MQ, 15 μM) was spiked into each sample as an internal standard. 2-MQ was quantified using an HP 1100 HPLC system (Agilent) with a Nova-Pak C18 column (Waters Corporation). Column effluent was monitored at 315 nm. 2-MQ concentration was determined by comparison to 2-MQ standards of known mass. Quantification of 2-MQ was corrected for losses by comparison with 5-MQ. MG concentration was calculated as 2-MQ/tissue weight. Treatment: Unless otherwise noted, crude MG was used for all behavioral experiments. MG was obtained from Sigma-Aldrich, filter-sterilized (0.22 μm filter, Millipore), diluted in vehicle (0.9% NaCl), and adjusted to pH 7.4. Mice were injected i.p. with 10 ml/kg MG or vehicle. HPLC: Ten minutes post-injection, mice were sacrificed, and brains were rapidly dissected and flash-frozen on dry ice. MG concentration was measured as described above.

Data set [8] relates to depression-like behavior in mice. As to conditions: intracerebroventricular MG for six days (Hambsch 2010); cited from earlier work.
Setting [9] is: MG 50 and 200 mg/kg pre-treatment, pilocarpine 250 mg/kg, B6 mice.

Regarding `CC(=O)C=O` [MG, methylglyoxal], the “center duration in the OFT” value in data set [1] was “increased center duration in the OFT”. The “duration of generalized convulsions” value in data set [2] is reported as “reduced seizure duration”. Further, the “percentage of mice undergoing generalized convulsions” value in data set [2] is “reduced the percentage of mice undergoing generalized convulsions”. Besides, the “latency to first generalized convulsion (seizure onset)” value in data set [2] (dose-dependent) is reported as “delayed seizure onset”. In addition, in data set [3], the “duration of EEG-confirmed seizures” value is “reduced seizure duration”. For the same compound, the “latency to first EEG-confirmed seizure” value in data set [3] is recorded as “delayed seizure onset”. For the same compound, the “number of EEG-confirmed seizures” value in data set [3] is “reduced the number of seizures”. Moreover, in data set [4] (MG 200 mg/kg given 10 min after pilocarpine 250 mg/kg), the “seizure duration, treatment of ongoing seizures” value was “reduced seizure duration in mice undergoing pilocarpine-induced seizures”. Besides, the “highest seizure stage reached” value in data set [4] (setting [9]) is recorded as “reduced seizure stage”. Also, the “latency to reach stage 3 (seizure onset)” value in data set [4] (setting [9]) is listed as “dose-dependently delayed seizure onset”. The “time spent in stage 3 (seizure duration)” value in data set [4] (setting [9]) is recorded as “reduced seizure duration”. Further, in data set [5], the “activation of glutamate receptors” value is “did not activate”. The hypothermia result in data set [6] is on record as “hypothermia”. The concentration at 10 min is 5.94 µM in data set [7] (B6, mouse, MG 50 mg/kg i.p. (anxiolytic dose)); 6.54 µM in data set [7] (B6, mouse, MG 100 mg/kg i.p.); 8.26 µM in data set [7] (B6, mouse, MG 300 mg/kg i.p.); about 6 µM in data set [7] (mouse, MG 50 mg/kg i.p. (anxiolytic dose)). Moreover, the figures for the “expected increase of the concentration of MG in the brain” value in data set [7] (MG 50 mg/kg) and in data set [7] (MG 200 mg/kg) were “approximately 16%” and about 43%, respectively. Further, the entries for the “MG concentration (nmol/g tissue)” value in data set [7] (MG 50 mg/kg i.p.), in data set [7] (MG 100 mg/kg i.p.) and in data set [7] (MG 300 mg/kg i.p.) were 5.66 ± 0.36 nmol/g tissue, 6.23 ± 0.26 nmol/g tissue and 7.87 ± 0.56 nmol/g tissue, respectively. The “immobility in the TST” value in data set [8] is “reduced immobility in the TST”.
